Patent US20230047816A1 (priority 2018, published 2023)

Tested on: neurons
Experiment: Neuroprotection, protection factor, b-amyloid treatment
Format: cell-based
Conditions: Treatment beta-amyloid, 24 hours
Experimental: For NMDAR activation, neurons at 8 days in vitro were incubated 100 μM NMDA (plus 10 μM glycine) for 10 minutes. Neurons were then washed and further incubated in culture medium with the PFKFB3 inhibitors for 24 hours. For b-amyloid treatment, neurons at 8 days in vitro were incubated with […] b-amyloid plus the PFKFB3 inhibitors for 24 hours. The Protection factor was estimated as [AMC(beta-A)−AMC(DMSO)]/[AMC(beta-A)−AMC(Test article)] or [AMC(beta-A)−AMC(DMSO)]/[AMC(NMDA)−AMC(Test article)], where:
AMC(DMSO)—% dead neuron in case of DMSO treatment
AMC(beta—A)—% dead neuron in case of b—amyloid treatment
AMC(Test article)—% dead neuron in case of PFKFB3 inhibitors treatment.

| Compound | Protection factors |
| --- | --- |
| O=C(O)c1ccc2c(c1)C(=O)N(c1cc(-c3ccc(Cl)cc3Cl)ccc1C(=O)O)C2=O | 1.75 |
| O=C(O)c1cc2c(cc1O)C(=O)N(c1cc(-c3ccc(F)c(F)c3)ccc1C(=O)O)C2=O | 2.15 |
| CN(C)CCOC(=O)c1ccc(-c2ccc(Cl)cc2Cl)cc1NC(=O)c1ccc(C(=O)N=S(C)(C)=O)cc1C(=O)O | 1.43 |
| O=C(O)c1ccc(-c2ccc(F)c(F)c2)cc1N1C(=O)c2cc(Cl)c(-c3cn[nH]n3)cc2C1=O | 1.15 |
| O=C(O)c1ccc(-c2ccc(F)c(F)c2)cc1N1Cc2ccc(-c3cn[nH]n3)cc2C1=O | 12.17 |
| CCOC(=O)c1ccc(-c2ccc(F)c(F)c2)cc1N1Cc2ccc(-c3cn[nH]n3)cc2C1=O | 2.35 |
| CC(C)OC(=O)c1ccc(-c2ccc(F)c(F)c2)cc1N1Cc2ccc(-c3cn[nH]n3)cc2C1=O | 1.43 |
| CC1(C)CCC(c2ccc(C(=O)O)c(NC(=O)c3cc(C(=O)O)c(O)cc3C(=O)O)c2)CC1 [2-{[2-carboxy-5-(4,4-dimethylcyclohexyl)phenyl]carbamoyl}-5-hydroxybenzene-1,4-dicarboxylic acid] | 2.05 |
| O=C(O)c1cc(C(=O)O)c(C(=O)Nc2cc(-c3ccc(Cl)cc3Cl)ccc2C(=O)O)cc1O [4-({4-carboxy-2′,4′-dichloro-[1,1′-biphenyl]-3-yl}carbamoyl)-6-hydroxybenzene-1,3-dicarboxylic acid] | 8.07 |
| CC1(C)CCN(c2ccc(C(=O)O)c(NC(=O)c3cc(O)c(C(=O)O)cc3C(=O)O)c2)CC1 [4-{[2-carboxy-5-(4,4-dimethylpiperidin-1-yl)phenyl]carbamoyl}-6-hydroxybenzene-1,3-dicarboxylic acid] | 4.33 |
| CC(C)Cn1cc(C#N)c2cc(Oc3ccc(NC(=O)[C@@H]4CCCN4)cc3)ccc21 [(2S)-N-(4-{[3-cyano-1-(2-methylpropyl)-1H-indol-5-yl]oxy]phenyl)pyrrolidine-2-carboxamide] | 1.97 |
| Cc1noc(C)c1Cn1cc(C#N)c2cc(Oc3ccc(NC(=O)[C@@H]4CCCN4)cc3)ccc21 [(2S)-N-[4-({3-cyano-1-[(3,5-dimethyl-1,2-oxazol-4-yl)methyl]-1H-indol-5-yl}oxy)phenyl]pyrrolidine-2-carboxamide] | 1.68 |

Biological target: Recombinant full length human PFKFB3 (Homo sapiens, UniProt Q16875)
Sequence (Q16875 whole entry): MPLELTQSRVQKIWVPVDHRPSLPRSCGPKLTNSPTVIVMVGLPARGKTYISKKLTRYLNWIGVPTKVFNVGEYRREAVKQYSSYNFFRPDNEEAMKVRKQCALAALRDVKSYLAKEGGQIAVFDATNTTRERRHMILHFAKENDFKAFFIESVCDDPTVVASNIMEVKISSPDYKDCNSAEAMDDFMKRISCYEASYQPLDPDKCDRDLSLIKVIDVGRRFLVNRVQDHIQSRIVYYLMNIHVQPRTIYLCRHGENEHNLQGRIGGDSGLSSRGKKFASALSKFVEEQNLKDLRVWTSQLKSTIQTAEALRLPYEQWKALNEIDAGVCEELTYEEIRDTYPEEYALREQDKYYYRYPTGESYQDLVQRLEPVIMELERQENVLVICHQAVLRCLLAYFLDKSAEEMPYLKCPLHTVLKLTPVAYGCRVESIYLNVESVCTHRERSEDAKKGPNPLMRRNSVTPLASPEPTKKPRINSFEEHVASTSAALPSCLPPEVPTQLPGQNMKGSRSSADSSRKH
Experiment: PFKFB3 kinase activity assay (ADP production, ADP-Glo)
Conditions: not given

| Compound | IC50 [µM] |
| --- | --- |
| CN(C)CCOC(=O)c1ccc(-c2ccccc2)cc1N1C(=O)c2ccc(-c3c[nH]nn3)cc2C1=O [Example 66] | 2 to 5 |
| CN1CCC(OC(=O)c2ccc(-c3ccc(Cl)cc3Cl)cc2NC(=O)c2cc(O)c(C(=O)O)cc2C(=O)O)C1 (centres unmarked) [Example 67, 4-[(2′,4′-dichloro-4-{[(1-methylpyrrolidin-3-yl)oxy]carbonyl}-[1,1′-biphenyl]-3-yl)carbamoyl]-6-hydroxybenzene-1,3-dicarboxylic acid] | < 0.5 |
| O=C(OCCN1CCOCC1)c1ccc(-c2ccccc2)cc1N1C(=O)c2ccc(-c3c[nH]nn3)cc2C1=O [Example 67] | 5 to 20 |
| CC(CN(C)C)OC(=O)c1ccc(-c2ccc(Cl)cc2Cl)cc1NC(=O)c1cc(C(=O)O)c(O)cc1C(=O)O (centres unmarked) [Example 73, 2-{[2′,4′-dichloro-4-({[1-(dimethylamino)propan-2-yl]oxy}carbonyl)-[1,1′-biphenyl]-3-yl]carbamoyl}-5-hydroxybenzene-1,4-dicarboxylic acid] | < 0.5 |
| N#Cc1cc(-c2ccccc2)ccc1N1C(=O)c2ccc(C(=O)O)cc2C1=O [compound 145, 2-(3-cyanobiphenyl-4-yl)-1,3-dioxoisoindoline-5-carboxylic acid] | < 20 |
| O=C1c2ccc(-c3c[nH]nn3)cc2C(=O)N1c1cc(-c2ccc(F)cc2)c(-c2ccccc2)cn1 [compound 146, 2-(4-(4-fluorophenyl)-5-phenylpyridin-2-yl)-5-(1H-1,2,3-triazol-4-yl)isoindoline-1,3-dione] | < 20 |
| Cn1cc(-c2ccccc2)cc(N2C(=O)c3ccc(-c4c[nH]nn4)cc3C2=O)c1=O [compound 147, 2-(1-methyl-2-oxo-5-phenyl-1,2-dihydropyridin-3-yl)-5-(1H-1,2,3-triazol-4-yl)isoindoline-1,3-dione] | < 20 |
| NS(=O)(=O)c1ccc(-c2ccccc2)cc1N1C(=O)c2ccc(-c3c[nH]nn3)cc2C1=O [compound 148, 3-(1,3-dioxo-5-(1H-1,2,3-triazol-4-yl)isoindolin-2-yl)biphenyl-4-sulfonamide] | < 20 |
| COc1ccc(-c2c(C)sc(N3C(=O)c4ccc(C(=O)NCC(=O)O)cc4C3=O)c2C#N)cc1 [compound 149, 2-(2-(3-cyano-4-(4-methoxyphenyl)-5-methylthiophen-2-yl)-1,3-dioxoisoindoline-5-carboxamido)acetic acid] | < 20 |
| COC(=O)c1cc(-c2ccccc2)ccc1N1C(=O)c2ccc(C(=O)NS(=O)(=O)c3ccccc3)cc2C1=O [compound 152, methyl 4-(1,3-dioxo-5-(phenylsulfonylcarbamoyl)isoindolin-2-yl)biphenyl-3-carboxylate] | < 20 |
| COc1ccc(-c2nnn[nH]2)c(N2C(=O)c3ccc(-c4c[nH]nn4)cc3C2=O)c1 [compound 154, 2-(2-(1H-tetrazol-5-yl)-5-methoxyphenyl)-5-(1H-1,2,3-triazol-4-yl)isoindoline-1,3-dione] | 5 to 20 |
| CN1CCN(CCOC(=O)c2ccc(-c3ccc(F)c(F)c3)cc2N2Cc3ccc(CO)cc3C2=O)CC1 [compound 155, 2-(4-methylpiperazin-1-yl)ethyl 3′,4′-difluoro-3-(6-(hydroxymethyl)-1-oxoisoindolin-2-yl)biphenyl-4-carboxylate] | < 20 |
| CC(C)OC(=O)c1ccc(-c2ccc(F)c(F)c2)cc1N1Cc2ccc(CO)cc2C1=O [compound 156, isopropyl 3′,4′-difluoro-3-(6-(hydroxymethyl)-1-oxoisoindolin-2-yl)biphenyl-4-carboxylate] | < 20 |
| COC(=O)c1ccc(-c2ccc(F)c(F)c2)cc1N1Cc2ccc(CO)cc2C1=O [compound 157, methyl 3′,4′-difluoro-3-(6-(hydroxymethyl)-1-oxoisoindolin-2-yl)biphenyl-4-carboxylate] | < 20 |
| O=C(O)c1ccc(-c2ccc(F)c(F)c2)cc1N1Cc2ccc(CO)cc2C1=O [compound 158, 3′,4′-difluoro-3-(6-(hydroxymethyl)-1-oxoisoindolin-2-yl)biphenyl-4-carboxylic acid] | 5 to 20 |
| CCOC(=O)c1ccc(-c2ccc(F)c(F)c2)cc1N1Cc2ccc(CO)cc2C1=O [compound 159, ethyl 3′,4′-difluoro-3-(6-(hydroxymethyl)-1-oxoisoindolin-2-yl)biphenyl-4-carboxylate] | < 20 |
| NC(=O)c1ccc2c(c1)C(=O)N(c1cc(-c3ccc(F)c(F)c3)ccc1C(=O)O)C2 [compound 160, 3-(6-carbamoyl-1-oxoisoindolin-2-yl)-3′,4′-difluorobiphenyl-4-carboxylic acid] | 5 to 20 |
| O=C(O)c1ccc(-c2ccc(F)c(F)c2)cc1N1Cc2ccc(-c3nn[nH]c3CO)cc2C1=O [compound 161, 3′,4′-difluoro-3-(6-(5-(hydroxymethyl)-1H-1,2,3-triazol-4-yl)-1-oxoisoindolin-2-yl)biphenyl-4-carboxylic acid] | 5 to 20 |
| O=C(O)c1ccc(-c2ccc(F)c(F)c2)cc1N1Cc2ccc(-c3nn[nH]c3C(=O)c3ccccc3)cc2C1=O [compound 162, 3-(6-(5-benzoyl-1H-1,2,3-triazol-4-yl)-1-oxoisoindolin-2-yl)-3′,4′-difluorobiphenyl-4-carboxylic acid] | 0.5 to 2 |
| O=C(O)c1ccc(-c2ccc(F)c(F)c2)cc1N1Cc2ccc(-c3nn[nH]c3-c3ccccc3)cc2C1=O [compound 163, 3′,4′-difluoro-3-(1-oxo-6-(5-phenyl-1H-1,2,3-triazol-4-yl)isoindolin-2-yl)biphenyl-4-carboxylic acid] | 0.5 to 2 |
| NC(=O)c1[nH]nnc1-c1ccc2c(c1)C(=O)N(c1cc(-c3ccc(F)c(F)c3)ccc1C(=O)O)C2 [compound 164, 3-(6-(5-carbamoyl-1H-1,2,3-triazol-4-yl)-1-oxoisoindolin-2-yl)-3′,4′-difluorobiphenyl-4-carboxylic acid] | 2 to 5 |
| CN(C)C(=O)c1[nH]nnc1-c1ccc2c(c1)C(=O)N(c1cc(-c3ccc(F)c(F)c3)ccc1C(=O)O)C2 [compound 165, 3-(6-(5-(dimethylcarbamoyl)-1H-1,2,3-triazol-4-yl)-1-oxoisoindolin-2-yl)-3′,4′-difluorobiphenyl-4-carboxylic acid] | 2 to 5 |
| CCOC(=O)c1ccc(-c2ccc(F)c(F)c2)cc1N1C(=O)c2ccc(-c3cnn[nH]3)cc2C1=O [compound 167, ethyl 3-[1,3-dioxo-5-(1H-1,2,3-triazol-5-yl)-1,3-dihydro-2H-isoindol-2-yl]-3′,4′-difluoro[1,1′-biphenyl]-4-carboxylate] | < 20 |
| CC(=O)OCCOC(=O)c1ccc(-c2ccc(F)c(F)c2)cc1N1C(=O)c2ccc(-c3cnn[nH]3)cc2C1=O [compound 168, 2-(acetyloxy)ethyl 3-[1,3-dioxo-5-(1H-1,2,3-triazol-5-yl)-2,3-dihydro-1H-isoindol-2-yl]-3′,4′-difluoro[1,1′-biphenyl]-4-carboxylate] | < 20 |
| O=C(O)c1cc2c(cc1Br)C(=O)N(c1cc(-c3ccc(F)c(F)c3)ccc1C(=O)O)C2=O [compound 169, 6-bromo-2-(4-carboxy-3′,4′-difluoro[1,1′-biphenyl]-3-yl)-1,3-dioxo-2,3-dihydro-1H-isoindole-5-carboxylic acid] | < 0.5 |
| COc1cc2c(cc1C(=O)O)C(=O)N(c1cc(-c3ccc(F)c(F)c3)ccc1C(=O)O)C2=O [compound 170, 2-(4-carboxy-3′,4′-difluoro[1,1′-biphenyl]-3-yl)-6-methoxy-1,3-dioxo-2,3-dihydro-1H-isoindole-5-carboxylic acid] | < 0.5 |
